{
  "source": "paper PMC4532598",
  "about": "(European journal of pharmacology, 2015)",
  "key": {"hKOP receptor [1]": {"target": "T1, hKOP receptor (Homo sapiens, UniProt P41145)", "T1 sequence (P41145 whole entry)": "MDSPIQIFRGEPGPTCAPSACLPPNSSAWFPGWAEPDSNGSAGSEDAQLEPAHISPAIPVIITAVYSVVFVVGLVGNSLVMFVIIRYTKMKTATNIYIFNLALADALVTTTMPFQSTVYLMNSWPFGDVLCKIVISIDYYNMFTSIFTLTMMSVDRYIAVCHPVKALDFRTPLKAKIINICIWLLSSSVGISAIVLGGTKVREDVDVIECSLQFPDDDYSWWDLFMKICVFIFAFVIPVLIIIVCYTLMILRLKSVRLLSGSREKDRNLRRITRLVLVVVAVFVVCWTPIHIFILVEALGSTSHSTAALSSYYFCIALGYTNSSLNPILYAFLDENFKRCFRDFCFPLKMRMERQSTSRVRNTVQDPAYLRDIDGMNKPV", "assay": "cell-based", "format": "cell-based", "settings": "for Emax: read-out: Internalization Emax (% receptor internalized)"}, "hKOP receptor [2]": {"target": "T1, hKOP receptor"}, "hKOP receptor [3]": {"target": "T1, hKOP receptor", "assay": "biochemical", "format": "biochemical", "settings": "for Emax: read-out: [35S]GTPγS binding Emax"}, "mice": {"test_system": "mice", "settings": "mouse, in vivo; cited from earlier work"}, "mKOP receptor [4]": {"target": "T2, mKOP receptor (Mus musculus, UniProt P33534)", "T2 sequence (P33534 whole entry)": "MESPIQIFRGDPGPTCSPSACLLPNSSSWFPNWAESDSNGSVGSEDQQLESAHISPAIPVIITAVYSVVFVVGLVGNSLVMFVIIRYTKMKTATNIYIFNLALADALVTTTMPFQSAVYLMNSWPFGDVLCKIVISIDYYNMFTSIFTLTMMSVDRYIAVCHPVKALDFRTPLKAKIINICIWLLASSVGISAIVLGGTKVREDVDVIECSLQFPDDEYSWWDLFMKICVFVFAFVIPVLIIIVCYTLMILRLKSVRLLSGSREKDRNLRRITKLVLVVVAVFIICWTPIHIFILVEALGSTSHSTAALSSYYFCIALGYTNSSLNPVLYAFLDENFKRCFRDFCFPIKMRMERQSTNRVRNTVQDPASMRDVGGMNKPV", "assay": "biochemical", "format": "biochemical", "settings": "for Emax: read-out: [35S]GTPγS binding Emax"}, "mKOP receptor [5]": {"target": "T2, mKOP receptor", "assay": "cell-based", "format": "cell-based"}, "mKOP receptor [6]": {"target": "T2, mKOP receptor"}},
  "note": "“Also recorded” adds a separate entry of the source.",
  "data": [
    {"compound": "CC[C@]12CCN(CC3CC3)[C@H](C(=O)c3ccc(O)cc31)[C@@H]2C", "note": "[EKC, ethylketocyclazocine]", "values": [
      {"measurement": "Emax", "setting": "hKOP receptor [1]", "result": "44.8 ± 2.2", "unit": "%"},
      {"measurement": "Bias factor, direction of bias", "setting": "hKOP receptor [2]", "result": "I, 3.1"},
      {"measurement": "log RAi−G", "setting": "hKOP receptor [3]", "result": "0.015 ± 0.11"},
      {"measurement": "Emax", "setting": "hKOP receptor [3]", "result": "80.6 ± 1.5", "unit": "%"}
    ]},
    {"compound": "RB-64", "values": [
      {"measurement": "Sedation and anhedonia-like actions", "setting": "mice", "result": "did not induce sedation or anhedonia-like effects"}
    ]},
    {"compound": "COC(=O)[C@@H]1C[C@H](OC(C)=O)C(=O)[C@H]2[C@@]1(C)CC[C@H]1C(=O)O[C@H](c3ccoc3)C[C@]21C", "note": "[Salvinorin A, salvinorin A]", "values": [
      {"measurement": "Sedation and anhedonia-like actions", "setting": "mice", "result": "produced sedation and anhedonia-like actions"}
    ]},
    {"compound": "CN1c2ccccc2C(c2ccccc2F)=NCC1CNC(=O)c1ccsc1", "note": "(centres unmarked) [Tifluadom, tifluadom]", "values": [
      {"measurement": "EC50", "setting": "hKOP receptor [1]; Internalization pEC50", "result": 11.2, "unit": "nM"},
      {"measurement": "Emax", "setting": "hKOP receptor [1]", "result": "29.6 ± 2.1", "unit": "%"},
      {"measurement": "Bias factor, direction of bias", "setting": "hKOP receptor [2]", "result": "I, 11.8"},
      {"measurement": "EC50", "setting": "hKOP receptor [3]; [35S]GTPγS binding EC50, mean", "result": 333, "unit": "nM"},
      {"measurement": "Emax", "setting": "hKOP receptor [3]", "result": "97.2 ± 11", "unit": "%"}
    ]},
    {"compound": "COC(=O)/C=C/C(=O)N[C@@H]1CC[C@@]2(O)[C@H]3Cc4ccc(O)c5c4[C@@]2(CCN3CC2CC2)[C@H]1O5", "note": "[β-FNA, β-funaltrexamine]", "values": [
      {"measurement": "Internalization Emax (% receptor internalized)", "setting": "hKOP receptor [1]", "result": "32.8 ± 5.7", "unit": "%"},
      {"measurement": "Internalization pEC50", "setting": "hKOP receptor [1]", "result": "8.02 ± 0.47 (9.6)"},
      {"measurement": "EC50", "setting": "hKOP receptor [1]; read-out: Internalization EC50, mean", "result": 9.6, "unit": "nM"},
      {"measurement": "Bias factor (larger RAi divided by smaller)", "setting": "hKOP receptor [2]", "result": "I ^c, 1.2"},
      {"measurement": "Bias factor, direction of bias", "setting": "hKOP receptor [2]", "result": "I ^c, 1.2"},
      {"measurement": "Functional selectivity (bias) in words", "setting": "hKOP receptor [2]", "result": "did not reach statistical significance"},
      {"measurement": "[35S]GTPγS binding Emax", "setting": "hKOP receptor [3]", "result": "63.7 ± 2.4", "unit": "%"},
      {"measurement": "[35S]GTPγS binding pEC50", "setting": "hKOP receptor [3]", "result": "8.08 ± 0.09 (8.4)"},
      {"measurement": "EC50", "setting": "hKOP receptor [3]; read-out: [35S]GTPγS binding EC50, mean", "result": 8.4, "unit": "nM"}
    ]},
    {"compound": "Oc1ccc2c(c1)[C@@]13CCCC[C@@]1(O)[C@@H](C2)N(CC1CCC1)CC3", "note": "[Butorphanol, butorphanol]", "values": [
      {"measurement": "log RAi−I", "setting": "hKOP receptor [1]", "result": "0.088 ± 0.18"},
      {"measurement": "EC50", "setting": "hKOP receptor [1]; Internalization pEC50", "result": 3.31, "unit": "nM"},
      {"measurement": "Emax", "setting": "hKOP receptor [1]", "result": "33.4 ± 3.2", "unit": "%"},
      {"measurement": "Bias factor, direction of bias", "setting": "hKOP receptor [2]", "result": "I ^c, 4.7"},
      {"measurement": "Functional selectivity (bias) in words", "setting": "hKOP receptor [2]", "result": "did not reach statistical significance"},
      {"measurement": "EC50", "setting": "hKOP receptor [3]; [35S]GTPγS binding EC50, mean", "result": 2.4, "unit": "nM"},
      {"measurement": "EC50", "setting": "hKOP receptor [3]; [35S]GTPγS binding pEC50", "result": 2.34, "unit": "nM"},
      {"measurement": "Emax", "setting": "hKOP receptor [3]", "result": "25.6 ± 1.8", "unit": "%"}
    ]},
    {"compound": "CN1CC[C@]23CCCC[C@H]2[C@H]1Cc1ccc(O)cc13", "note": "[Levorphanol, levorphanol]", "values": [
      {"measurement": "Internalization Emax (% receptor internalized)", "setting": "hKOP receptor [1]", "result": "did not cause significant internalization; also recorded: lacked an effect on receptor internalization; also recorded: did not cause receptor internalization; also recorded: No internalization"},
      {"measurement": "Internalization pEC50", "setting": "hKOP receptor [1]", "result": "No internalization"},
      {"measurement": "Agonist efficacy in [35S]GTPγS binding, in words", "setting": "mKOP receptor [4]", "result": "partial agonists"},
      {"measurement": "EC50", "setting": "mKOP receptor [4]; [35S]GTPγS binding pEC50", "result": 30.2, "unit": "nM"},
      {"measurement": "Emax", "setting": "mKOP receptor [4]", "result": "62.3 ± 2.9", "unit": "%"},
      {"measurement": "EC50", "setting": "mKOP receptor [5]", "result": 0.83, "unit": "nM"},
      {"measurement": "log RAi−I", "setting": "mKOP receptor [5]", "result": "0.29 ± 0.35"},
      {"measurement": "Emax", "setting": "mKOP receptor [5]; read-out: Internalization Emax (% receptor internalized)", "result": "29.7 ± 1.7", "unit": "%"},
      {"measurement": "Agonist efficacy in [35S]GTPγS binding, in words", "setting": "hKOP receptor [3]", "result": "weak partial agonist; also recorded: partial agonists"},
      {"measurement": "EC50", "setting": "hKOP receptor [3]; [35S]GTPγS binding EC50, mean", "result": 72, "unit": "nM"},
      {"measurement": "Emax", "setting": "hKOP receptor [3]", "result": "38.1 ± 4.8", "unit": "%"},
      {"measurement": "Bias factor, direction of bias", "setting": "mKOP receptor [6]", "result": "I, 244"},
      {"measurement": "Bias factor, direction, mKOP receptor (Table 5)", "setting": "mKOP receptor [6]", "result": "I, 244"},
      {"measurement": "Bias factor, mKOP receptor (Table 5)", "setting": "mKOP receptor [6]", "result": "I, 244"},
      {"measurement": "Functional selectivity (bias) in words", "setting": "mKOP receptor [6]", "result": "internalization-biased"},
      {"measurement": "log RAi−G/RAi−I (log bias)", "setting": "mKOP receptor [6]", "result": "−2.39 ± 0.37"}
    ]},
    {"compound": "CCC12CCN(CC3(O)CC3)C(Cc3ccc(O)cc31)C2(C)C", "note": "(centres unmarked) [Bremazocine, bremazocine]", "values": [
      {"measurement": "log RAi−I", "setting": "hKOP receptor [1]", "result": "0.58 ± 0.16"},
      {"measurement": "EC50", "setting": "hKOP receptor [1]; Internalization EC50, mean", "result": 1.4, "unit": "nM"},
      {"measurement": "EC50", "setting": "hKOP receptor [1]; Internalization pEC50", "result": 1.35, "unit": "nM"},
      {"measurement": "Emax", "setting": "hKOP receptor [1]", "result": "39.2 ± 1.8", "unit": "%"},
      {"measurement": "Bias factor (larger RAi divided by smaller)", "setting": "hKOP receptor [2]", "result": "I ^c, 1.2"},
      {"measurement": "Bias factor, direction of bias", "setting": "hKOP receptor [2]", "result": "I ^c, 1.2"},
      {"measurement": "Functional selectivity (bias) in words", "setting": "hKOP receptor [2]", "result": "did not reach statistical significance"},
      {"measurement": "log RAi−G", "setting": "hKOP receptor [3]", "result": "0.50 ± 0.11"},
      {"measurement": "EC50", "setting": "hKOP receptor [3]; [35S]GTPγS binding EC50, mean", "result": 0.95, "unit": "nM"},
      {"measurement": "Emax", "setting": "hKOP receptor [3]", "result": "68.2 ± 2", "unit": "%"}
    ]},
    {"compound": "C=CCN1CC[C@]23c4c5ccc(O)c4O[C@H]2[C@@H](O)C=C[C@H]3[C@H]1C5", "note": "[Nalorphine, nalorphine]", "values": [
      {"measurement": "Internalization Emax (% receptor internalized)", "setting": "hKOP receptor [1]", "result": "23.7 ± 4.0", "unit": "%"},
      {"measurement": "EC50", "setting": "hKOP receptor [1]; Internalization pEC50", "result": 12, "unit": "nM"},
      {"measurement": "Emax", "setting": "hKOP receptor [1]", "result": 23.9, "unit": "%"},
      {"measurement": "Bias factor (larger RAi divided by smaller)", "setting": "hKOP receptor [2]", "result": "I ^c, 2.5"},
      {"measurement": "Bias factor, direction of bias", "setting": "hKOP receptor [2]", "result": "I ^c, 2.5"},
      {"measurement": "Functional selectivity (bias) in words", "setting": "hKOP receptor [2]", "result": "did not reach statistical significance"},
      {"measurement": "EC50", "setting": "hKOP receptor [3]; [35S]GTPγS binding pEC50", "result": 27.5, "unit": "nM"},
      {"measurement": "Emax", "setting": "hKOP receptor [3]", "result": "51.4 ± 2.3", "unit": "%"}
    ]},
    {"compound": "CC(C)=CCN1CCC2(C)c3cc(O)ccc3CC1C2C", "note": "(centres unmarked) [Pentazocine, pentazocine]", "values": [
      {"measurement": "log RAi−I", "setting": "hKOP receptor [1]", "result": "−0.87 ± 0.22"},
      {"measurement": "EC50", "setting": "hKOP receptor [1]; Internalization EC50, mean", "result": 92, "unit": "nM"},
      {"measurement": "EC50", "setting": "hKOP receptor [1]; Internalization pEC50", "result": 91.2, "unit": "nM"},
      {"measurement": "Emax", "setting": "hKOP receptor [1]", "result": "37 ± 13.3", "unit": "%"},
      {"measurement": "Agonist efficacy in [35S]GTPγS binding, in words", "setting": "mKOP receptor [4]", "result": "partial agonists"},
      {"measurement": "Emax", "setting": "mKOP receptor [4]", "result": "46.6 ± 2.7", "unit": "%"},
      {"measurement": "Bias factor (larger RAi divided by smaller)", "setting": "hKOP receptor [2]", "result": "I ^c, 5.8"},
      {"measurement": "Bias factor, direction of bias", "setting": "hKOP receptor [2]", "result": "I ^c, 5.8"},
      {"measurement": "Bias factor, direction, hKOP receptor (Table 5)", "setting": "hKOP receptor [2]", "result": "I ^c, 5.8"},
      {"measurement": "Bias factor, hKOP receptor (Table 5)", "setting": "hKOP receptor [2]", "result": "I ^c, 5.8"},
      {"measurement": "Internalization Emax (% receptor internalized)", "setting": "mKOP receptor [5]", "result": "did not cause significant internalization; also recorded: lacked significant effects on receptor internalization; also recorded: did not cause receptor internalization; also recorded: not mKOP receptor; also recorded: No internalization"},
      {"measurement": "Agonist efficacy in [35S]GTPγS binding, in words", "setting": "hKOP receptor [3]", "result": "partial agonists"},
      {"measurement": "EC50", "setting": "hKOP receptor [3]; [35S]GTPγS binding EC50, mean", "result": 28, "unit": "nM"},
      {"measurement": "EC50", "setting": "hKOP receptor [3]; [35S]GTPγS binding pEC50", "result": 28.2, "unit": "nM"},
      {"measurement": "Emax", "setting": "hKOP receptor [3]", "result": "20.5 ± 6.9", "unit": "%"}
    ]}
  ]
}
